Reference: patent US20230096203A1, “METHODS FOR DETECTING FOOD ALLERGIES” (THE REGENTS OF THE UNIVERSITY OF MICHIGAN, priority 2020, published 2023)

System: CFTR-dependent Cl— transport
Assay: Ussing chamber: forskolin-induced short-circuit current of jejunum segments pre-incubated ex vivo with ion channel blockers
Parameters: species or system BALB/c wild-type (WT) mice
Conditions: jejunum of OVA-treated mice; DIDS (100 μM) or CFTRInh172 (20 μM) in mucosal reservoir
Procedure: Oral Antigen-Induced Intestinal Anaphylaxis. 4-8-week-old mice were sensitized to ovalbumin (OVA) ([…] of OVA/1 mg of alum in sterile saline by intraperitoneal (i.p.) injection) and received repeated oral gavage (o.g.) challenge with OVA (250 μl of OVA (50 mg) in saline or 250 μl of saline (vehicle)) as previously described (Ahrens et al., American Journal of Pathology 180, 1535-1546, doi:10.101/j.ajpath.2011.12.036 (2012)). Prior to each o.g. challenge, mice were deprived of food for 4-5 hours. Rectal temperatures were measured prior to challenge and then every 15 minutes for 60 minutes. […] Evidence of secretory diarrhea was assessed by determination of short-circuit current (Isc) of small intestine (Si) segments ex vivo in a Ussing chamber system up to 60 minutes following o.g. challenge. […]
Ussing chambers. […] The transepithelial potential difference (PD) was detected with two paired electrodes that contained 4% agar in 3 M KCl. […] To establish equilibrium, PD was continuously monitored under open-circuit conditions for 15 min. […] For ion conductance experiments, changes in Isc were determined for the cumulative addition of forskolin and acetylcholine to the serosal reservoir. After the peak response to the final concentration of each agonist was recorded, the Krebs buffer on each side of the chamber was replaced, and the tissue was allowed to equilibrate for 30 minutes. […]

O=S(=O)(O)c1cc(N=C=S)ccc1C=Cc1ccc(N=C=S)cc1S(=O)(=O)O [DIDS, 4,4′-Diisothiocyanatostilbene-2,2′-disulfonate]
Forskolin-induced ΔIsc: not

O=C(O)c1ccc(/C=C2\SC(=S)N(c3cccc(C(F)(F)F)c3)C2=O)cc1 [CFTR^inh172]
Forskolin-induced ΔIsc: abrogated
